Measurements taken from patent EP2019099A1, “Dpp-IV inhibitors” (Santhera Pharmaceuticals (Schweiz) AG, priority 2007, dated 2009).

What follows are compounds tested against T1, DPP-IV (Homo sapiens, UniProt P27487) (assay: Inhibition of DPP-IV peptidase activity, continuous fluorimetric assay (Gly-Pro-AMC cleavage)). Details: 50 pM DPP-IV, 16 µM substrate Gly-Pro-AMC, pH 7.4, 25 °C, values grouped in 2 classes.
T1 construct: Soluble human DPP-IV lacking the transmembrane anchor (Gly31-Pro766); Pre-Pro-alpha-mating factor leader (secretion fusion) (N, cleaved yes); made in house
T1 sequence (P27487 31-766): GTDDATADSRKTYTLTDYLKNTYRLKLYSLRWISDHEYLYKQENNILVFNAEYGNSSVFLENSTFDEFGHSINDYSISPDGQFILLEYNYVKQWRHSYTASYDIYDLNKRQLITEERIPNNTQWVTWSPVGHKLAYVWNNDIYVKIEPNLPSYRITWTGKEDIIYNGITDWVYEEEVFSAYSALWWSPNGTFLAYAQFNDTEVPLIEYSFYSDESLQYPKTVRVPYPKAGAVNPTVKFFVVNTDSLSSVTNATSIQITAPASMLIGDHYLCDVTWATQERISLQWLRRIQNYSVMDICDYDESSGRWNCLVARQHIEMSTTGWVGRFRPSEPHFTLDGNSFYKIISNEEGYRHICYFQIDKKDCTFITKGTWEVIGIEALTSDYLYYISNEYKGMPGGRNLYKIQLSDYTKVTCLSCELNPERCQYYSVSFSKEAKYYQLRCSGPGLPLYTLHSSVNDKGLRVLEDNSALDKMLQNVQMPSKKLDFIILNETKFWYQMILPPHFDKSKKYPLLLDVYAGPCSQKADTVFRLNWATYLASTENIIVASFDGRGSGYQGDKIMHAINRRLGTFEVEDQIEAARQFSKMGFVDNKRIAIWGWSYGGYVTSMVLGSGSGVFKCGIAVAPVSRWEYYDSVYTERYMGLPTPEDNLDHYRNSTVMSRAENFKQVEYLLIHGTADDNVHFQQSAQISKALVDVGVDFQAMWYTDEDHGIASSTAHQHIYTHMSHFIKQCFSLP
Assay type: biochemical, human and porcine
Procedure: Inhibition of DPP-IV peptidase activity was monitored with a continuous fluorimetric assay. This assay is based on the cleavage of the substrate Gly-Pro-AMC (Bachem) by DPP-IV, releasing free AMC. The assay is carried out in 96-well microtiterplates. In a total volume of 100 µL, compounds are preincubated with 50 pM DPP-IV employing a buffer containing 10mM Hepes, 150mM NaCl, 0.005% Tween 20 (pH 7.4). The reaction is started by the addition of 16 µM substrate and the fluorescence of liberated AMC is detected for 10 minutes at 25 °C with a fluorescence reader (BMG-Fluostar; BMG-Technologies) using an excitation wavelength of 370 nm and an emission wavelength of 450 nm. The final concentration of DMSO is 1 %. The inhibitory potential of the compounds were determined.
Soluble human DPP-IV lacking the transmembrane anchor (Gly31-Pro766) was expressed in a recombinant YEAST-strain as Pre-Pro-alpha-mating fusion. The secreted product (rhuDPP-IV-Gly31-Pro766) was purified from fermentation broth (>90% purity).
In table 1 are listed the IC50 values for inhibition of DPP-IV peptidase activity determined in assays as described above. The IC50 values were grouped in 2 classes: a ≤ 100 nM; b ≥101 nM and ≤ 1000 nM.

IC50, ≤ 100 nM:
Cc1ncc(C(=O)N2CCC([C@H](N)Cc3cc(F)c(F)cc3F)CC2)c(C)n1 [Example 1, {4-[(R)-1-Amino-2-(2,4,5-trifluoro-phenyl)-ethyl]-piperidin-1-yl}-(2,4-dimethyl-pyrimidin-5-yl)-methanone]
Cc1ncc(C(=O)N2CCC([C@H](N)Cc3cc(F)c(F)cc3F)CC2)c(C(F)(F)F)n1 [Example 6]
N[C@H](Cc1cc(F)c(F)cc1F)C1CCN(C(=O)c2cnc(C(F)(F)F)nc2C2CC2)CC1 [Example 4]
CC(C)c1ncc(C(=O)N2CCC([C@H](N)Cc3cc(F)c(F)cc3F)CC2)c(C2CC2)n1 [Example 5]
Cc1nc(C(F)(F)F)ncc1C(=O)N1CCC([C@H](N)Cc2cc(F)c(F)cc2F)CC1 [Example 2, {4-[(R)-1-Amino-2-(2,4,5-trifluoro-phenyl)-ethyl]-piperidin-1-yl}-(4-methyl-2-trifluoromethylpyrimidin-5-yl)-methanone]
Cc1nc(N)ncc1C(=O)N1CCC([C@H](N)Cc2cc(F)c(F)cc2F)CC1 [Example 7]
Cc1nc(-c2ccccc2)ncc1C(=O)N1CCC([C@H](N)Cc2cc(F)c(F)cc2F)CC1 [Example 9]
N[C@H](Cc1cc(F)c(F)cc1F)C1CCN(C(=O)c2cnc(-c3ccccn3)nc2C(F)(F)F)CC1 [Example 8]
